Assay results published in patent US12083101B2, “Biaryl derivatives as YAP/TAZ-TEAD protein-protein interaction inhibitors” (Novartis AG, priority 2020, dated 2024).

The compounds below were run against Avi-humanTEAD4 217-434 / Cy5 labeled humanYAP 60-100 (Homo sapiens (Human), UniProt Q15561) (assay: TR-FRET YAP-TEAD4 in-vitro biochemical assay). Details: 1 nM Avi-humanTEAD4 217-434, 20 nM Cy5-humanYAP 60-100, 1 h room temperature.
Format: binding

Sequence of Avi-humanTEAD4 217-434 / Cy5 labeled humanYAP 60-100 (Q15561 217-434): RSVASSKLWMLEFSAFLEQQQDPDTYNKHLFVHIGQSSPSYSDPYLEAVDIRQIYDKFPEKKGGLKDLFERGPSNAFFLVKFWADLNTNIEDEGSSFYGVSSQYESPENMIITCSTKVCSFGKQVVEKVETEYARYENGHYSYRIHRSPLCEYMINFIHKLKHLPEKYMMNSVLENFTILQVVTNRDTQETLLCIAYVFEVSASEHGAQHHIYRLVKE

First: NC[C@]1(c2ccccc2)Oc2cc(F)c(Cl)c(-c3c(C(N)=O)ccc(OCCO)c3F)c2[C@@H]1O (atropisomer, axis not shown) [Example 98, 2-((2S,3S,4S)-2-(Aminomethyl)-5-chloro-6-fluoro-3-hydroxy-2-phenyl-2,3-dihydrobenzofuran-4-yl)-3-fluoro-4-(2-hydroxyethoxy)benzamide]
Second: C[C@H]1c2c(cc(F)c(Cl)c2-c2c(C(N)=O)ccc(OCCO)c2F)O[C@]1(CN)c1ccccc1 (atropisomer, axis not shown) [Example 107, 2-((2S,3S,4S)-2-(aminomethyl)-5-chloro-6-fluoro-3-methyl-2-phenyl-2,3-dihydrobenzofuran-4-yl)-3-fluoro-4-(2-hydroxyethoxy)benzamide]
The IC50 of the first is 2.5-fold higher: 5 nM for the first, 2 nM for the second.

`C[C@H]1c2c(cc(F)c(Cl)c2-c2c(C(N)=O)ccc(OC(F)F)c2F)O[C@]1(CN)c1ccccc1` (atropisomer, axis not shown) [Example 105, 2-((2S,3S,4S)-2-(Aminomethyl)-5-chloro-6-fluoro-3-methyl-2-phenyl-2,3-dihydrobenzofuran-4-yl)-4-(difluoromethoxy)-3-fluorobenzamide] and `C[C@H]1c2c(cc(F)c(Cl)c2-c2c(C(N)=O)ccc(OC(F)F)c2F)O[C@]1(CN[C@H]1CC[C@H](O)CC1)c1ccccc1` (atropisomer, axis not shown) [Example 115a, 2-((2S,3S,4S)-5-chloro-6-fluoro-2-((((trans)-4-hydroxycyclohexyl)amino)methyl)-3-methyl-2-phenyl-2,3-dihydrobenzofuran-4-yl)-4-(difluoromethoxy)-3-fluorobenzamide] are the same in IC50: 2 nM for the first, 2 nM for the second.

First: COCCOc1ncc(C(N)=O)c(-c2c(Cl)c(F)cc3c2[C@H](C)[C@@](CN)(c2ccccc2)O3)c1F (atropisomer, axis not shown) [Example 108, 4-((2S,3S,4S)-2-(aminomethyl)-5-chloro-6-fluoro-3-methyl-2-phenyl-2,3-dihydrobenzofuran-4-yl)-5-fluoro-6-(2-methoxyethoxy)nicotinamide]
Second: CNC[C@]1(c2ccccn2)Oc2cc(F)c(Cl)c(-c3c(C(N)=O)ccc(OCCOC)c3F)c2[C@@H]1C (atropisomer, axis not shown) [Example 111, 2-((2R,3S,4S)-5-chloro-6-fluoro-3-methyl-2-((methylamino)methyl)-2-(pyridin-2-yl)-2,3-dihydrobenzofuran-4-yl)-3-fluoro-4-(2-methoxyethoxy)benzamide]
The IC50 of the first is 2-fold lower: 2 nM for the first, 4 nM for the second.

First: CNC[C@]1(c2ccccn2)Oc2cc(F)c(Cl)c(-c3c(C(N)=O)ccc(OCCO)c3F)c2[C@@H]1C (atropisomer, axis not shown) [Example 112, 2-((2R,3S,4S)-5-chloro-6-fluoro-3-methyl-2-((methylamino)methyl)-2-(pyridin-2-yl)-2,3-dihydrobenzofuran-4-yl)-3-fluoro-4-(2-hydroxyethoxy)benzamide]
Second: COCCOc1ccc(C(N)=O)c(-c2c(Cl)c(F)cc3c2[C@H](C)[C@@](CN[C@H]2CC[C@](C)(O)CC2)(c2ccccc2)O3)c1F (atropisomer, axis not shown) [Example 116a, 2-((25,35,4S)-5-chioro-6-fluoro-2-((((trans)-4-hydroxy-4-methylcyclohexyl)amino)methyl)-3-methyl-2-phenyl-2,3-dihydrobenzofuran-4-yl)-3-fluoro-4-(2-methoxyethoxy)benzamide]
The IC50 of the first is higher: 1 nM for the first, under 1 nM for the second.

`C[C@H]1c2c(cc(F)c(Cl)c2-c2c(C(N)=O)ccc(OC(F)F)c2F)O[C@]1(CN[C@H]1CC[C@@H](O)CC1)c1ccccc1` (atropisomer, axis not shown) [Example 115b, 2-((2S,3S,4S)-5-chloro-6-fluoro-2-((((cis)-4-hydroxycyclohexyl)amino)methyl)-3-methyl-2-phenyl-2,3-dihydrobenzofuran-4-yl)-4-(difluoromethoxy)-3-fluorobenzamide] and `NC(=O)c1ccc(OC(F)F)c(F)c1-c1c(Cl)c(F)cc2c1[C@H](O)[C@@](CN[C@H]1CC[C@H](O)CC1)(c1ccccc1)O2` (relative stereo) [Example 100a, 2-((2S,3S,4S)-5-Chloro-6-fluoro-3-hydroxy-2-((((trans)-4-hydroxycyclohexyl)amino)methyl)-2-phenyl-2,3-dihydrobenzofuran-4-yl)-4-(difluoromethoxy)-3-fluorobenzamide] are the same in IC50: 2 nM for the first, 2 nM for the second.

First: COCCOc1ccc(C(N)=O)c(-c2c(Cl)c(F)cc3c2[C@H](C)[C@@](CN[C@H]2CC[C@@](C)(O)CC2)(c2ccccc2)O3)c1F (atropisomer, axis not shown) [Example 116b, 2-((2S,3S,4S)-5-chloro-6-fluoro-2-((((cis)-4-hydroxy-4-methylcyclohexyl)amino)methyl)-3-methyl-2-phenyl-2,3-dihydrobenzofuran-4-yl)-3-fluoro-4-(2-methoxyethoxy)benzamide]
Second: CO[C@H]1c2c(cc(F)c(Cl)c2-c2c(C(N)=O)ccc(OC(F)F)c2F)O[C@]1(CN[C@H]1CC[C@H](O)CC1)c1ccccc1 (relative stereo) [Example 102a, 2-((2S,3S,4S)-5-Chloro-6-fluoro-2-((((trans)-4-hydroxycyclohexyl)amino)methyl)-3-methoxy-2-phenyl-2,3-dihydrobenzofuran-4-yl)-4-(difluoromethoxy)-3-fluorobenzamide]
The IC50 of the first is 3-fold lower: 1 nM for the first, 3 nM for the second. The first is the more potent here.

First: NC[C@@]1(c2ccccc2)Cc2c(ncc(Cl)c2-c2c(F)cccc2C(N)=O)O1 (atropisomer, axis not shown) [Example 131, 2-((2S,4S)-2-(Aminomethyl)-5-chloro-2-phenyl-2,3-dihydrofuro[2,3-b]pyridin-4-yl)-3-fluorobenzamide]
Second: NC(=O)c1ccc(OC(F)F)c(F)c1-c1c(Cl)c(F)cc2c1[C@H](O)[C@@](CN[C@H]1CC[C@@H](O)CC1)(c1ccccc1)O2 (relative stereo) [Example 100b, 2-((2S,3S,4S)-5-chloro-6-fluoro-3-hydroxy-2-((((cis)-4-hydroxycyclohexyl)amino)methyl)-2-phenyl-2,3-dihydrobenzofuran-4-yl)-4-(difluoromethoxy)-3-fluorobenzamide]
The IC50 of the first is 260-fold higher: 1290 nM for the first, 5 nM for the second. The second is the more potent here.

`COc1ccc(C(N)=O)c(-c2c(Cl)ccc3c2[C@H](O)[C@@](CN[C@H]2CC[C@H](O)CC2)(c2ccccn2)O3)c1F` (relative stereo) [Example 95a, 2-((2R,3S,4S)-5-Chloro-3-hydroxy-2-((((trans)-4-hydroxycyclohexyl)amino)methyl)-2-(pyridin-2-yl)-2,3-dihydrobenzofuran-4-yl)-3-fluoro-4-methoxybenzamide] and `COc1ccc(C(N)=O)c(-c2c(Cl)ccc3c2[C@H](O)[C@@](CN[C@H]2CC[C@@H](O)CC2)(c2ccccn2)O3)c1F` (relative stereo) [Example 95b, 2-((2R,3S,4S)-5-chloro-3-hydroxy-2-((((cis)-4-hydroxycyclohexyl)amino)methyl)-2-(pyridin-2-yl)-2,3-dihydrobenzofuran-4-yl)-3-fluoro-4-methoxybenzamide] are within 1.5-fold of each other in IC50: 8 nM for the first, 7 nM for the second.

`CO[C@H]1c2c(cc(F)c(Cl)c2-c2c(C(N)=O)ccc(OC(F)F)c2F)O[C@]1(CN[C@H]1CC[C@@H](O)CC1)c1ccccc1` (relative stereo) [Example 102b, 2-((2S,3S,4S)-5-chloro-6-fluoro-2-((((cis)-4-hydroxycyclohexyl)amino)methyl)-3-methoxy-2-phenyl-2,3-dihydrobenzofuran-4-yl)-4-(difluoromethoxy)-3-fluorobenzamide] showed an IC50 of 4 nM.
